In patent US9376418B2, “Substituted pyridine spleen tyrosine kinase (SYK) inhibitors” (Merck Sharp & Dohme Corp., priority 2012, dated 2016):

Molecular target: T1, recombinant human GST-SYK (Homo sapiens, UniProt P43405)
T1 construct: purchased Carna Biosciences 08-176
Assay: Homogeneous Time-Resolved Fluorescence (HTRF) assay for the recombinant human Syk enzyme
Assay type: biochemical
Conditions: HTRF assay, recombinant human GST-SYK; IC50 given as class symbols; read-out: rhSYK Activity
Procedure, shortened: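 GST-hSYK ([…]) was preincubated with inhibitor (0.1% DMSO final) for 10 minutes at room temperature in 15 mM Tris-HCl pH 7.5, 0.01% tween 20, 2 mM DTT. Biotinylated peptide (250 nM), 5 mM magnesium and 25 μM ATP started a 45-minute room-temperature reaction, read by time-resolved fluorescence.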

IC50 | Compound
100 to 1000 nM | COC(=O)C1CCC(O)(c2ccc(-c3cc(C)cc(Nc4nccc(C(F)(F)F)n4)c3)cn2)CC1(C)C (centres unmarked) [Example 9.41, methyl 4-hydroxy-2,2-dimethyl-4-[5-(3-methyl-5-{[4-(trifluoromethyl)pyrimidin-2-yl]amino}phenyl)pyridin-2-yl]cyclohexanecarboxylate]
100 to 1000 nM | CCOC(=O)C1CCC(O)(c2ccc(-c3cc(C)cc(Nc4nccc(C(F)(F)F)n4)c3)cn2)CC1(C)C (centres unmarked) [Example 9.42, ethyl 4-hydroxy-2,2-dimethyl-4-[5-(3-methyl-5-{[4-(trifluoromethyl)pyrimidin-2-yl]amino}phenyl)pyridin-2-yl]cyclohexanecarboxylate]
< 100 nM | CC1(C)CC(O)(c2ccc(-c3cccc(Nc4nccc(C(F)(F)F)n4)c3)cn2)CCC1C(=O)O (centres unmarked) [Example 9.43, 4-hydroxy-2,2-dimethyl-4-[5-(3-{[4-(trifluoromethyl)pyrimidin-2-yl]amino}phenyl)pyridin-2-yl]cyclohexanecarboxylic acid]
100 to 1000 nM | CCOC(=O)C1(C)CCC(O)(c2ccc(-c3cc(C)cc(Nc4nccc(C(F)(F)F)n4)c3)cn2)CC1 (centres unmarked) [Example 9.44, ethyl 4-hydroxy-1-methyl-4-[5-(3-methyl-5-{[4-(trifluoromethyl)pyrimidin-2-yl]amino}phenyl)pyridin-2-yl]cyclohexanecarboxylate]
< 100 nM | Cc1cc(Nc2nccc(C(F)(F)F)n2)cc(-c2ccc(C3(O)CCC(C(=O)O)C(C)(C)C3)nc2)c1 (centres unmarked) [Example 9.46, 4-hydroxy-2,2-dimethyl-4-[5-(3-methyl-5-{[4-(trifluoromethyl)pyrimidin-2-yl]amino}phenyl)pyridin-2-yl]cyclohexanecarboxylic acid]
1000 to 10000 nM | CCOC(=O)C1CCC(O)(c2ccc(-c3cc(C)cc(Nc4nccc(C(F)(F)F)n4)c3)cn2)C1(C)C (centres unmarked) [Example 9.47, ethyl 3-hydroxy-2,2-dimethyl-3-[5-(3-methyl-5-{[4-(trifluoromethyl)pyrimidin-2-yl]amino}phenyl)pyridin-2-yl]cyclopentanecarboxylate]
< 100 nM | Cc1cc(Nc2nccc(C(F)(F)F)n2)cc(-c2ccc(C3(O)CCC(=O)CC3)nc2)c1 [Example 9.54, 4-hydroxy-4-[5-(3-methyl-5-{[4-(trifluoromethyl)pyrimidin-2-yl]amino}phenyl)pyridin-2-yl]cyclohexanone]
< 100 nM | Cc1cc(Nc2nccc(C(F)(F)F)n2)cc(-c2ccc(C3(O)COC3)nc2)c1 [Example 9.55, 3-[5-(3-methyl-5-{[4-(trifluoromethyl)pyrimidin-2-yl]amino}phenyl)pyridin-2-yl]oxetan-3-ol]
< 100 nM | Cc1cc(Nc2nccc(C(F)(F)F)n2)cc(-c2ccc(C(C)(O)CO)nc2)c1 (centres unmarked) [Example 9.56, 2-[5-(3-methyl-5-{[4-(trifluoromethyl)pyrimidin-2-yl]amino}phenyl)pyridin-2-yl]propane-1,2-diol]
< 100 nM | Cc1cc(Nc2nccc(C(F)(F)F)n2)cc(-c2ccc(C(C)(O)CO)nc2)c1 (centres unmarked) [Example 9.57, 2-[5-(3-methyl-5-{[4-(trifluoromethyl)pyrimidin-2-yl]amino}phenyl)pyridin-2-yl]propane-1,2-diol]
< 100 nM | Cc1cc(Nc2nccc(C(F)(F)F)n2)cc(-c2ccc([C@]3(O)CC[C@@H](O)CC3)nc2)c1 [Example 9.58, cis-1-[5-(3-methyl-5-{[4-(trifluoromethyl)pyrimidin-2-yl]amino}phenyl)pyridin-2-yl]cyclohexane-1,4-diol]
< 100 nM | Cc1cc(Nc2nccc(C(F)(F)F)n2)cc(-c2ccnc(C3(O)CCC3)c2)c1 [Example 9.60, 1-[4-(3-methyl-5-{[4-(trifluoromethyl)pyrimidin-2-yl]amino}phenyl)pyridin-2-yl]cyclobutanol]
< 100 nM | Cc1cc(Nc2nccc(C(F)(F)F)n2)cc(-c2ccnc(C(C)(C)O)c2)c1 [Example 9.61, 2-[4-(3-methyl-5-{[4-(trifluoromethyl)pyrimidin-2-yl]amino}phenyl)pyridin-2-yl]propan-2-ol]
100 to 1000 nM | Cc1cc(Nc2nccc(C(F)(F)F)n2)cc(-c2ccnc(C3(O)COC(C)(C)OC3)c2)c1 [Example 9.62, 2,2-dimethyl-5-[4-(3-methyl-5-{[4-(trifluoromethyl)pyrimidin-2-yl]amino}phenyl)pyridin-2-yl]-1,3-dioxan-5-ol]
< 100 nM | Cc1cc(Nc2nccc(C(F)(F)F)n2)cc(-c2ccnc(C3(O)CCC4(CC3)OCCO4)c2)c1 [Example 9.63, 8-[4-(3-methyl-5-{[4-(trifluoromethyl)pyrimidin-2-yl]amino}phenyl)pyridin-2-yl]-1,4-dioxaspiro[4.5]decan-8-ol]
< 100 nM | Cc1cc(Nc2nccc(C(F)(F)F)n2)cc(-c2ccnc(C(C)(O)CO)c2)c1 (centres unmarked) [Example 9.64, 2-[4-(3-methyl-5-{[4-(trifluoromethyl)pyrimidin-2-yl]amino}phenyl)pyridine-2-yl]propane-1,2-diol]
< 100 nM | Cc1cc(Nc2nccc(C(F)(F)F)n2)cc(-c2ccnc(C(O)(CO)CO)c2)c1 [Example 9.65, 2-[4-(3-methyl-5-{[4-(trifluoromethyl)pyrimidin-2-yl]amino}phenyl)pyridine-2-yl]propane-1,2,3-triol]
< 100 nM | Cc1cc(Nc2nccc(C(F)(F)F)n2)cc(-c2cncc(C3(O)CCCC(C(=O)O)C3)c2)c1 (centres unmarked) [Example 9.66, 3-hydroxy-3-[5-(3-methyl-5-{[4-(trifluoromethyl)pyrimidin-2-yl]amino}phenyl)pyridin-3-yl]cyclohexanecarboxylic acid]
< 100 nM | Cc1cc(Nc2nccc(C(F)(F)F)n2)cc(-c2cncc(C3(O)CCC(C(=O)O)C3)c2)c1 (centres unmarked) [Example 9.67, 3-hydroxy-3-[5-(3-methyl-5-{[4-(trifluoromethyl)pyrimidin-2-yl]amino}phenyl)pyridin-3-yl]cyclopentanecarboxylic acid]

Continued, molecule first:

Compound | IC50
Cc1cc(Nc2nccc(C(F)(F)F)n2)cc(-c2ccc(C3(O)CCC(C(=O)O)C3(C)C)nc2)c1 (centres unmarked) [Example 9.22, 3-hydroxy-2,2-dimethyl-3-[5-(3-methyl-5-{[4-(trifluoromethyl)pyrimidin-2-yl]amino}phenyl)pyridin-2-yl]cyclopentanecarboxylic acid] | < 100 nM
Cc1cc(Nc2nccc(C)n2)cc(-c2ccc(C(C)(O)[C@H]3CC[C@H](C(=O)O)CC3)nc2)c1 (stereo partly drawn) [Example 9.23, trans-4-[1-hydroxy-1-(5-{3-methyl-5-[(4-methylpyrimidin-2-yl)amino]phenyl}pyridin-2-yl)ethyl]cyclohexanecarboxylic acid] | < 100 nM
Cc1cc(Nc2nccc(C3CC3)n2)cc(-c2ccc(C(C)(O)[C@H]3CC[C@H](C(=O)O)CC3)nc2)c1 (stereo partly drawn) [Example 9.24, trans-4-[1-(5-{3-[(4-cyclopropylpyrimidin-2-yl)amino]-5-methylphenyl}pyridin-2-yl)-1-hydroxyethyl]cyclohexanecarboxylic acid] | < 100 nM
COc1ccnc(Nc2cc(C)cc(-c3ccc(C(C)(O)[C@H]4CC[C@H](C(=O)O)CC4)nc3)c2)n1 (stereo partly drawn) [Example 9.25, trans-4-[1-hydroxy-1-(5-{3-[(4-methoxypyrimidin-2-yl)amino]-5-methylphenyl}pyridin-2-yl)ethyl]cyclohexanecarboxylic acid] | < 100 nM
Cc1cc(Nc2nccc(C(F)(F)F)n2)cc(-c2ccc(C3(O)COC(C)(C)OC3)nc2)c1 [Example 9.32, 2,2-dimethyl-5-[5-(3-methyl-5-{[4-(trifluoromethyl)pyrimidin-2-yl]amino}phenyl)pyridin-2-yl]-1,3-dioxan-5-ol] | 100 to 1000 nM
Cc1cc(Nc2nccc(C(F)(F)F)n2)cc(-c2ccc(C(O)(CO)CO)nc2)c1 [Example 9.33, 2-[5-(3-methyl-5-{[4-(trifluoromethyl)pyrimidin-2-yl]amino}phenyl)pyridin-2-yl]propane-1,2,3-triol] | < 100 nM
Cc1cc(Nc2nccc(C(F)(F)F)n2)cc(-c2ccc([C@]3(O)CC[C@@H](C(=O)O)CC3)nc2)c1 [Example 9.34, cis-4-hydroxy-4-[5-(3-methyl-5-{[4-(trifluoromethyl)pyrimidin-2-yl]amino}phenyl)pyridin-2-yl]cyclohexanecarboxylic acid] | < 100 nM
Cc1cc(Nc2nccc(C(F)(F)F)n2)cc(-c2ccc([C@]3(O)CC[C@H](C(=O)O)CC3)nc2)c1 [Example 9.35, trans 4-hydroxy-4-[5-(3-methyl-5-{[4-(trifluoromethyl)pyrimidin-2-yl]amino}phenyl)pyridin-2-yl]cyclohexanecarboxylic acid] | < 100 nM
COc1ccnc(Nc2cc(C)cc(-c3ccc([C@]4(O)CC[C@H](C(=O)O)CC4)nc3)c2)n1 [Example 9.36, trans-4-hydroxy-4-(5-{3-[(4-methoxypyrimidin-2-yl)amino]-5-methylphenyl}pyridin-2-yl)cyclohexanecarboxylic acid] | < 100 nM
Cc1cc(Nc2nccc(C)n2)cc(-c2ccc([C@]3(O)CC[C@@H](C(=O)O)CC3)nc2)c1 [Example 9.37, cis-4-hydroxy-4-(5-{3-methyl-5-[(4-methylpyrimidin-2-yl)amino]phenyl}pyridin-2-yl)cyclohexanecarboxylic acid] | < 100 nM
Cc1cc(Nc2nccc(C)n2)cc(-c2ccc([C@]3(O)CC[C@H](C(=O)O)CC3)nc2)c1 [Example 9.38, trans-4-hydroxy-4-(5-{3-methyl-5-[(4-methylpyrimidin-2-yl)amino]phenyl}pyridin-2-yl)cyclohexanecarboxylic acid] | < 100 nM
Cc1cc(Nc2nccc(C)n2)cc(-c2ccc(C3(O)CCC(C(=O)O)C(C)(C)C3)nc2)c1 (centres unmarked) [Example 9.39, 4-hydroxy-2,2-dimethyl-4-(5-{3-methyl-5-[(4-methylpyrimidin-2-yl)amino]phenyl}pyridin-2-yl)cyclohexanecarboxylic acid] | < 100 nM
CCOC(=O)C1CCC(O)(c2ccc(-c3cc(C)cc(Nc4nccc(C)n4)c3)cn2)CC1(C)C (centres unmarked) [Example 9.40, ethyl 4-hydroxy-2,2-dimethyl-4-(5-{3-methyl-5-[(4-methylpyrimidin-2-yl)amino]phenyl}pyridin-2-yl)cyclohexanecarboxylate] | 100 to 1000 nM
